# Assays:
# Experiment in all cases: cells
# RCC10RGB = format: functional, cell-based, Homo sapiens; details: rcc10rgb;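 further: growth inhibition of human RCC10RGB cells, read out by a cell viability assay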
# Description: SANGER: Inhibition of human RCC10RGB cell growth in a cell viability assay.
# KU812 cell line = format: functional, cell-based, Homo sapiens; details: ku812;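 further: growth inhibition of KU812 cells, read out with a cell viability assay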
# Description: SANGER: Inhibition of human KU812 cell growth in a cell viability assay.
# SF-539 = format: functional, cell-based, Homo sapiens; details: sf-539;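 further: Read-out is a cell viability assay, with IC50 reflecting inhibition of cell growth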
# Description: SANGER: Inhibition of human SF539 cell growth in a cell viability assay.
# GI-1 = format: functional, cell-based, Homo sapiens; details: gi-1;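 further: growth inhibition of human GI-1 cells, measured with a cell viability readout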
# Description: SANGER: Inhibition of human GI-1 cell growth in a cell viability assay.
# KP-N-YS = format: functional, cell-based, Homo sapiens; details: kp-n-ys;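 further: cell viability assay measuring inhibition of cell line growth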
# Description: SANGER: Inhibition of human KP-N-YS cell growth in a cell viability assay.
# JVM-2 = format: functional, cell-based, Homo sapiens; details: jvm-2;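 further: growth inhibition of JVM-2 cells determined by a cell viability assay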
# Description: SANGER: Inhibition of human JVM-2 cell growth in a cell viability assay.
# TE-8 = format: functional, cell-based, Homo sapiens; details: te-8;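 further: growth inhibition of TE-8 cells, measured with a cell viability readout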
# Description: SANGER: Inhibition of human TE-8 cell growth in a cell viability assay.
# ACN = format: functional, cell-based, Homo sapiens; details: acn;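 further: growth inhibition of the human ACN cell line, read out via cell viability testing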
# Description: SANGER: Inhibition of human ACN cell growth in a cell viability assay.
# HuTu80 = format: functional, cell-based, Homo sapiens, HUTU-80; details: hutu-80;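 further: growth inhibition of HuTu80 human cells, determined with a cell viability readout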
# Description: SANGER: Inhibition of human HUTU-80 cell growth in a cell viability assay.
# DEL = format: functional, cell-based, Homo sapiens; details: del;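 further: growth inhibition of the human DEL cell line, read out with a cell viability assay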
# Description: SANGER: Inhibition of human DEL cell growth in a cell viability assay.
# KG-1 = format: functional, cell-based, Homo sapiens; details: kg-1;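 further: growth inhibition of KG-1 cells, read out by a cell viability assay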
# Description: SANGER: Inhibition of human KG-1 cell growth in a cell viability assay.
# SK-UT-1 = format: functional, cell-based, Homo sapiens; details: sk-ut-1;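 further: growth inhibition of SK-UT-1 cells, measured by a cell viability assay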
# Description: SANGER: Inhibition of human SK-UT-1 cell growth in a cell viability assay.
# LNCaP-Clone-FGC = format: functional, cell-based, Homo sapiens; details: lncap-clone-fgc
# Description: SANGER: Inhibition of human LNCaP-Clone-FGC cell growth in a cell viability assay.
# SNB-75 = format: functional, cell-based, Homo sapiens; details: snb-75;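 further: cell viability assay measuring growth inhibition of human SNB-75 cells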
# Description: SANGER: Inhibition of human SNB75 cell growth in a cell viability assay.
# MZ2-MEL = format: functional, cell-based, Homo sapiens; details: mz2-mel;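 further: growth inhibition of MZ2-MEL cells read out with a cell viability assay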
# Description: SANGER: Inhibition of human MZ2-MEL cell growth in a cell viability assay.
# MZ7-mel = format: functional, cell-based, Homo sapiens; details: mz7-mel;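 further: growth inhibition of human MZ7-mel cells, measured by a cell viability assay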
# Description: SANGER: Inhibition of human MZ7-mel cell growth in a cell viability assay.
# HCE-T = format: functional, cell-based, Homo sapiens; details: hce-t;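 further: cell viability assay read-out, reporting inhibition of HCE-T cell growth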
# Description: SANGER: Inhibition of human HCE-T cell growth in a cell viability assay.
# C8166 = format: functional, cell-based, Homo sapiens; details: c8166;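 further: growth inhibition of human C8166 cells measured by a cell viability assay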
# Description: SANGER: Inhibition of human C8166 cell growth in a cell viability assay.
# NB5 = format: functional, cell-based, Homo sapiens; details: nb5;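 further: growth inhibition of NB5 cells, read out as cell viability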
# Description: SANGER: Inhibition of human NB5 cell growth in a cell viability assay.
# JAR = format: functional, cell-based, Homo sapiens; details: jar;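 further: growth inhibition of human JAR cells determined with a cell viability assay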
# Description: SANGER: Inhibition of human JAR cell growth in a cell viability assay.
# LC-2-ad = format: functional, cell-based, Homo sapiens; details: lc-2-ad;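 further: growth inhibition of human LC-2-ad cells, read out with a cell viability assay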
# Description: SANGER: Inhibition of human LC-2-ad cell growth in a cell viability assay.
# GT3TKB = format: functional, cell-based, Homo sapiens; details: gt3tkb;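 further: growth inhibition of the cell line, read out with a cell viability assay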
# Description: SANGER: Inhibition of human GT3TKB cell growth in a cell viability assay.
# Lu-65 = format: functional, cell-based, Homo sapiens; details: lu-65;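 further: growth inhibition of Lu-65 cancer cells, read out by a cell viability assay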
# Description: SANGER: Inhibition of human LU-65 cell growth in a cell viability assay.
# TE-1 = format: functional, cell-based, Homo sapiens; details: te-1;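 further: growth inhibition of the human TE-1 cell line, read out with a cell viability assay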
# Description: SANGER: Inhibition of human TE-1 cell growth in a cell viability assay.
# NB69 = format: functional, cell-based, Homo sapiens; details: nb69;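 further: growth inhibition of NB69 cells, determined by a cell viability assay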
# Description: SANGER: Inhibition of human NB69 cell growth in a cell viability assay.
# COLO-668 = format: functional, cell-based, Homo sapiens; details: colo-668
# Description: SANGER: Inhibition of human COLO-668 cell growth in a cell viability assay.
# NKM-1 = format: functional, cell-based, Homo sapiens; details: nkm-1;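 further: growth inhibition of NKM-1 cells, read out with a cell viability assay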
# Description: SANGER: Inhibition of human NKM-1 cell growth in a cell viability assay.
# NB12 = format: functional, cell-based, Homo sapiens; details: nb12;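 further: growth inhibition of human NB12 cells, read out by a cell viability assay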
# Description: SANGER: Inhibition of human NB12 cell growth in a cell viability assay.
# Calu-6 = format: functional, cell-based, Homo sapiens; details: calu-6;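 further: growth of human Calu-6 cells, read out by a cell viability assay, IC50 marking inhibition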
# Description: SANGER: Inhibition of human Calu-6 cell growth in a cell viability assay.
# L-428 = format: functional, cell-based, Homo sapiens; details: l-428
# Description: SANGER: Inhibition of human L-428 cell growth in a cell viability assay.
# DB = format: functional, cell-based, Homo sapiens; details: db
# Description: SANGER: Inhibition of human DB cell growth in a cell viability assay.
# MMAC-SF = format: functional, cell-based, Homo sapiens; details: mmac-sf;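 further: growth inhibition of human MMAC-SF cells, read out with a cell viability assay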
# Description: SANGER: Inhibition of human MMAC-SF cell growth in a cell viability assay.
# MHH-PREB-1 = format: functional, cell-based, Homo sapiens; details: mhh-preb-1;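 further: cell viability assay measuring inhibition of proliferation of human MHH-PREB-1 cells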
# Description: SANGER: Inhibition of human MHH-PREB-1 cell growth in a cell viability assay.
# CW-2 = format: functional, cell-based, Homo sapiens; details: cw-2;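 further: growth inhibition of CW-2 cells, read out by a cell viability assay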
# Description: SANGER: Inhibition of human CW-2 cell growth in a cell viability assay.
# KE-37 = format: functional, cell-based, Homo sapiens; details: ke-37;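 further: growth inhibition of KE-37 cells, read out with a cell viability assay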
# Description: SANGER: Inhibition of human KE-37 cell growth in a cell viability assay.
# MLMA = format: functional, cell-based, Homo sapiens; details: mlma;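 further: growth inhibition of MLMA cells (human), determined through a cell viability readout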
# Description: SANGER: Inhibition of human MLMA cell growth in a cell viability assay.
# D-263MG = format: functional, cell-based, Homo sapiens; details: d-263mg
# Description: SANGER: Inhibition of human D-263MG cell growth in a cell viability assay.
# LU-134-A = format: functional, cell-based, Homo sapiens; details: lu-134-a
# Description: SANGER: Inhibition of human LU-134-A cell growth in a cell viability assay.
# SW872 = format: functional, cell-based, Homo sapiens; details: sw872;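 further: growth inhibition of SW872 cells, read out by a viability assay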
# Description: SANGER: Inhibition of human SW872 cell growth in a cell viability assay.
# LS-513 = format: functional, cell-based, Homo sapiens; details: ls-513
# Description: SANGER: Inhibition of human LS-513 cell growth in a cell viability assay.
# NCI-H446 = format: functional, cell-based, Homo sapiens; details: nci-h446;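 further: growth inhibition of NCI-H446 cells determined by a cell viability assay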
# Description: SANGER: Inhibition of human NCI-H446 cell growth in a cell viability assay.
# 697 = format: functional, cell-based, Homo sapiens
# Description: SANGER: Inhibition of human 697 cell growth in a cell viability assay.
# A253 cell line = format: functional, cell-based, Homo sapiens; details: a253;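 further: growth inhibition of A253 cells, read out with a cell viability assay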
# Description: SANGER: Inhibition of human A253 cell growth in a cell viability assay.
# ONS-76 = format: functional, cell-based, Homo sapiens; details: ons-76;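 further: growth inhibition of human ONS-76 cells, read out with a cell viability assay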
# Description: SANGER: Inhibition of human ONS-76 cell growth in a cell viability assay.
# MC116 = format: functional, cell-based, Homo sapiens; details: mc116;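 further: growth inhibition of MC116 cells, read out with a cell viability assay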
# Description: SANGER: Inhibition of human MC116 cell growth in a cell viability assay.
# LB2518-MEL = format: functional, cell-based, Homo sapiens; details: lb2518-mel;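 further: growth inhibition of human LB2518-MEL cells, measured with a cell viability assay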
# Description: SANGER: Inhibition of human LB2518-MEL cell growth in a cell viability assay.
# OMC-1 = format: functional, cell-based, Homo sapiens; details: omc-1;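 further: growth inhibition of the OMC-1 cell line, measured by a cell viability assay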
# Description: SANGER: Inhibition of human OMC-1 cell growth in a cell viability assay.
# KURAMOCHI = format: functional, cell-based, Homo sapiens; details: kuramochi;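 further: growth inhibition of KURAMOCHI cells, read out with a cell viability assay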
# Description: SANGER: Inhibition of human KURAMOCHI cell growth in a cell viability assay.
# A101D = format: functional, cell-based, Homo sapiens; details: a101d;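 further: growth inhibition of the cell line, measured with a viability assay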
# Description: SANGER: Inhibition of human A101D cell growth in a cell viability assay.
# HT = format: functional, cell-based, Homo sapiens; details: ht
# Description: SANGER: Inhibition of human HT cell growth in a cell viability assay.
sequence,measurement,setting,value
BLEOMYCIN,IC50,RCC10RGB,70.6 µM
same,IC50,KU812 cell line,68 µM
same,IC50,SF-539,0.393 µM
same,IC50,GI-1,1.2 µM
same,IC50,KP-N-YS,30.3 µM
same,IC50,JVM-2,0.572 µM
same,IC50,TE-8,0.377 µM
same,IC50,ACN,0.808 µM
same,IC50,HuTu80,0.000136 µM
same,IC50,DEL,0.48 µM
same,IC50,KG-1,0.131 µM
same,IC50,SK-UT-1,0.00629 µM
same,IC50,LNCaP-Clone-FGC,18.3 µM
same,IC50,SNB-75,1.61 µM
same,IC50,MZ2-MEL,2.95 µM
same,IC50,MZ7-mel,0.13 µM
same,IC50,HCE-T,2.83 µM
same,IC50,C8166,7.77 µM
same,IC50,NB5,6.72 µM
same,IC50,JAR,206 µM
same,IC50,LC-2-ad,0.0804 µM
same,IC50,GT3TKB,0.00685 µM
same,IC50,Lu-65,19.5 µM
same,IC50,TE-1,6.43 µM
same,IC50,NB69,0.923 µM
same,IC50,COLO-668,21.8 pM
same,IC50,NKM-1,0.00765 µM
same,IC50,NB12,82.4 µM
same,IC50,Calu-6,7.67 µM
same,IC50,L-428,52.3 µM
same,IC50,DB,5.12 µM
same,IC50,MMAC-SF,21.3 µM
same,IC50,MHH-PREB-1,836 µM
same,IC50,CW-2,564 µM
same,IC50,KE-37,25.9 µM
same,IC50,MLMA,0.87 µM
same,IC50,D-263MG,142 µM
same,IC50,LU-134-A,41.8 µM
same,IC50,SW872,3.45 µM
same,IC50,LS-513,29 µM
same,IC50,NCI-H446,18.9 µM
same,IC50,697,1.58 µM
same,IC50,A253 cell line,2.86 µM
same,IC50,ONS-76,0.854 µM
same,IC50,MC116,2.11 µM
same,IC50,LB2518-MEL,0.182 µM
same,IC50,OMC-1,11.9 µM
same,IC50,KURAMOCHI,2.04 µM
same,IC50,A101D,0.62 µM
same,IC50,HT,5.56 µM
